Our source for the IC50 values is PubChem BioAssay AID488890 (Southern Research Specialized Biocontainment Screening …, 2010).

Records with an inconclusive call do not appear. Active and inactive are the calls of the source. No rule for the calls is given here.

Usually IC50 stands for the point on the concentration scale where inhibition reaches its midpoint.

The test deals with Mycobacterium tuberculosis non-replicating, growth inhibition. Put plainly: growth inhibition of non-replicating M. tuberculosis (AID 488890).
Consider `CCOC(=O)/C=C1\Nc2ccccc2OC1=O`, for which the IC50 is 3 µM.

As for `O=C1c2cccc3c([N+](=O)[O-])ccc(c23)C(=O)N1c1ccc(Cl)cn1`, the IC50 was 0.69 µM.

With `CC(C)(C)NC(=O)COC(=O)c1snc(C(=O)NC2CCCCC2)c1N`, the concentration for half-maximal inhibition (IC50) is 1.64 µM.

Regarding `COc1ccccc1-c1nnc(-c2ccc(C)cc2)o1`, the IC50 is 6.42 µM.

Take `CN1CCC(O)(c2cccs2)C(C(=O)c2cccs2)C1` (stereo not given): the half-maximal inhibitory concentration (IC50) was 2.35 µM.

For `O=C1c2ccccc2CC1Sc1nnc(-c2ccncc2)o1` (stereo not given), the IC50 was 23.9 µM (inactive).

For the molecule `Cc1ccc(C(=O)N/N=C/C=C/c2ccccc2)cc1`, the IC50 is 3.77 µM.

In the case of `CCc1ccc(NC(=O)C(=O)NNC(=O)c2cccc(OC)c2)cc1`, the IC50 is 1.06 µM.

Regarding `CC(C)NC(=O)C1COc2ccccc2O1` (stereo not given), the IC50 is 36.5 µM (inactive).

As for `Cc1ccc(N=N/C(=C\O)C(=O)c2ccncc2)cc1`, the IC50 is 10.1 µM (inactive).

Take `O=c1cc(C(F)(F)F)[nH]c2c(C(F)(F)F)cccc12`: the IC50 was 5.78 µM.

Regarding `O=C(COC(=O)CCc1c[nH]c2ccccc12)Nc1cc([N+](=O)[O-])ccc1Cl`, the half-inhibitory concentration (IC50) was 3.17 µM.

`COc1cccc(-c2nc(C=O)cs2)c1`: the IC50 was 37.2 µM (inactive).

For the molecule `O=[N+]([O-])c1ccc(CN2CCN(c3ccc(Cl)cc3)CC2)o1`, the IC50 was below 0.1 µM.

`CCC(C)[C@H]1CN=C(N)N1CCc1cccc2ccccc12` (stereo not given in full): the IC50 is 12.5 µM (inactive).

Regarding `O=C(NCc1ccc(Cl)cc1)c1n[nH]c([N+](=O)[O-])c1Cl`, the IC50 is 13.9 µM (inactive).

With `CCOC(=O)C(=CNNc1cccc(Cl)c1)C(=O)OCC`, the IC50 is 18.7 µM (inactive).

With `O=C(N/N=C/c1ccccn1)c1cc([N+](=O)[O-])cc([N+](=O)[O-])c1`, the half-maximal inhibitory concentration (IC50) is 9.98 µM.

On to `C=CCNCC(=O)N1N=C(c2ccc3ccccc3c2)CC1c1ccc(OC)cc1` (stereo not given), for which the IC50 is 20.6 µM (inactive).

For the molecule `CCCCCCCC(=O)N/N=C/c1ccc([N+](=O)[O-])o1`, the half-maximal inhibitory concentration (IC50) was 2.63 µM.

For the molecule `Cc1cc(OCCCCn2ccnc2)cc(C)c1Cl`, the IC50 is 4.68 µM.

As to `O=C1NC(=O)N(Cc2ccc(F)cc2)C(=O)/C1=C\c1ccc([N+](=O)[O-])s1`, the IC50 was 11.2 µM (inactive).

As to `O=C(c1ccc([N+](=O)[O-])cc1[N+](=O)[O-])N1CCc2ccccc21`, the 50% inhibitory concentration (IC50) was 3.34 µM.

As for `O=C(NCCSc1ccccc1)c1ccc(Br)cc1`, the IC50 is 32.1 µM (inactive).

With `CC(=O)Oc1ccc(N(C(C)=O)S(=O)(=O)c2cccs2)c2ccccc12`, the IC50 is 11.6 µM (inactive).

With `O=C(CN1CCCCC1)Nc1nnc(-c2ccc([N+](=O)[O-])cc2)s1`, the IC50 is 11.7 µM (inactive).

For `CC(C)(C)NC(=O)c1ccc(NC(=O)c2ccccc2-c2ccccc2C(=O)O)cc1`, the IC50 was 3.71 µM.

With `FC(F)c1nnc2ccc(Cl)nn12`, the IC50 is 5.9 µM.

With `CSc1ccccc1NC(=O)c1cc(C(C)C)on1`, the IC50 is 22.2 µM (inactive).

Consider `COc1ccc2cc(C(=O)C3CCCN(Cc4cccc(C)n4)C3)ccc2c1` (stereo not given), for which the IC50 is 8.11 µM.

For `O=C(CCSc1nnc(-c2ccccc2)o1)N1CCOCC1`, the concentration for half-maximal inhibition (IC50) was 3.95 µM.

On to `COc1ccccc1OCCN1CSC(=S)N(C)C1`, for which the IC50 is 8.14 µM.

On to `CC(C)c1cc(C(=O)N/N=C/C=C/c2ccccc2)n[nH]1`, for which the IC50 is 27 µM (inactive).

Take `CCOc1ccc(C(=O)N/N=C(/C)C2C(=O)c3ccccc3C2=O)cc1`: the IC50 is 0.47 µM.

Turning to `CC(C)(C)c1ccc(C(=O)Nc2nnc(C3=COCCO3)o2)cc1`, the half-maximal inhibitory concentration (IC50) is 3.07 µM.

For `Cc1cccc(NC(=O)COC(=O)CCc2c[nH]c3ccccc23)c1C`, the 50% inhibitory concentration (IC50) was 6.12 µM.

Take `CCCC(NCC(O)COc1ccc(-c2ccccc2)cc1)c1ccccc1` (stereo not given): the IC50 was 10.7 µM (inactive).

In the case of `CCCn1nnnc1NCc1ccc(CC)cc1`, the IC50 was 8.41 µM.

For the molecule `O=C(Nc1nnc(-c2ccc(Cl)cc2)o1)c1nc2ccccc2s1`, the IC50 is 0.25 µM.

For the molecule `Cc1ccn2nc(S(=O)(=O)Nc3c(F)cccc3F)nc2n1`, the IC50 was 17.5 µM (inactive).

As for `Cc1ccc(C2=NN(C)c3nc4ccccc4n3C2)cc1`, the IC50 is 18.7 µM (inactive).

Turning to `COc1cccc2cc(C(=O)c3ccc([N+](=O)[O-])cc3)oc12`, the 50% inhibitory concentration (IC50) is 6.05 µM.

As to `CCN(Cc1ccccc1)c1ccc(/C=N/N=C(N)N)cc1`, the IC50 was 5.74 µM.

In the case of `Oc1ccccc1/C=N/Nc1ncc(Br)cn1`, the IC50 was 1.12 µM.

For the molecule `CCOC(=O)COc1cc(O)c2c(=O)cc(-c3ccccc3)oc2c1`, the 50% inhibitory concentration (IC50) was 0.44 µM.

Take `O=C1c2cccc3cc([N+](=O)[O-])cc(c23)C(=O)N1c1ccccc1O`: the IC50 is 15.1 µM (inactive).

For `CCOc1cc(-c2sc(Nc3cc(C)ccc3OC)n[n+]2-c2ccccc2)ccc1OC`, the IC50 is 4.29 µM.

Consider `O=C(COC(=O)CC1CCCC1)Nc1ccc(OC(F)F)cc1`, for which the IC50 is 10.8 µM (inactive).

Take `CCOC(=O)C(=O)Cc1nc2ccccc2s1`: the IC50 was 6.54 µM.

For the molecule `Cc1cc2n(n1)SC(Nc1ccccc1)N2` (stereo not given), the IC50 was 26.7 µM (inactive).

Consider `COc1ccc(NC(=O)c2nc3ccccc3s2)cc1`, for which the IC50 is 9.36 µM.

For the molecule `S=c1[nH]c2ccccc2o1`, the IC50 is 27.5 µM (inactive).

For the molecule `COc1cccc(NC(=O)c2cnc(SC)nc2)c1`, the IC50 is 10.4 µM (inactive).

With `COc1cc(/C=N/NC(=O)c2ccncc2)ccc1OC(=O)c1cccc(F)c1`, the half-inhibitory concentration (IC50) was 3.53 µM.

`O=[N+]([O-])c1ccc(CN2CCN(c3ccccc3Cl)CC2)o1`: the IC50 is 3.83 µM.

With `CCn1c(O)c(C(=O)CC2NCCc3ccccc32)c(=O)n(CC)c1=S` (stereo not given), the IC50 was 21.8 µM (inactive).

Turning to `O=C(NCC(c1cccs1)N1CCOCC1)c1cc([N+](=O)[O-])cc([N+](=O)[O-])c1` (stereo not given), the IC50 is 2.96 µM.

On to `O=C(COc1ccc2ccccc2c1)NNC(=O)c1cccs1`, for which the IC50 is 4.52 µM.

`COc1ccc(OC)c(N2C(=O)NC(=O)/C(=C/c3ccc([N+](=O)[O-])s3)C2=O)c1`: the IC50 was 25.5 µM (inactive).

Turning to `CCOc1ccc2nc(/N=C/c3nc(-c4ccccc4)oc3O)sc2c1`, the IC50 was 6.2 µM.

As for `Cc1cc(CC(C)C)n(-c2nc3ccccc3c(=O)n2OCC(N)=O)n1`, the IC50 is 16.1 µM (inactive).

Consider `CC(NC(=O)OCc1ccccc1)c1ccccc1` (stereo not given), for which the IC50 was 0.82 µM.

For the molecule `O=C(CCSc1nnc(-c2ccncc2)o1)Nc1cccc(Cl)c1`, the IC50 was 20.3 µM (inactive).

`CCOC(=O)c1sc(NC(=O)CCN2CC(C)OC(C)C2)c(C(=O)OCC)c1C` (stereo not given): the IC50 was 21.8 µM (inactive).

Take `O=C(COC(=O)c1ccccc1)NCc1cccs1`: the IC50 was 37.4 µM (inactive).

In the case of `O=C1NC(=O)C(=Cc2ccc(-c3ccc(Cl)cc3)o2)C(=O)N1`, the concentration for half-maximal inhibition (IC50) is below 0.1 µM.

Turning to `O=C(NNc1nc2ccccc2s1)c1ccc(F)cc1`, the IC50 is 43.8 µM (inactive).

`Cc1cccnc1NC(=O)C1COc2ccccc2O1` (stereo not given): the IC50 was 29.6 µM (inactive).

As for `CC(NC(=O)c1cc([N+](=O)[O-])cc([N+](=O)[O-])c1)c1ccc(-n2ccnc2)cc1` (stereo not given), the IC50 is 5.42 µM.

`CN1/C(=C\C(=O)COC(=O)c2ccc([N+](=O)[O-])o2)C(C)(C)c2ccccc21`: the 50% inhibitory concentration (IC50) is 3.61 µM.

Take `CN(C)CC(C(=O)c1ccccc1)c1ccccc1` (stereo not given): the 50% inhibitory concentration (IC50) was 2.83 µM.

As to `Cc1ccc2nc3c(c(N)c2c1)CCN3c1ccccc1`, the IC50 was 28.4 µM (inactive).

For `COc1ccc(/C=N/Nc2cc(C)nc3ccccc23)cc1`, the half-maximal inhibitory concentration (IC50) is 8.43 µM.

For the molecule `COc1ccc(C(=O)NCC(=O)N/N=C/c2ccc([N+](=O)[O-])o2)cc1OC`, the concentration for half-maximal inhibition (IC50) was 4.97 µM.

Take `O=C(OCc1nnc(-c2ccccc2)o1)c1cc([N+](=O)[O-])ccc1Cl`: the IC50 was 6.28 µM.

Consider `O=C(CCN1CCN(C/C=C/c2ccccc2)CC1)Nc1ccc(Cl)cc1`, for which the IC50 was 18.8 µM (inactive).

As for `CCOc1ccc(NC(=O)COc2ccc3c(c2)OCO3)cc1`, the IC50 is 10.6 µM (inactive).

Turning to `CC1CCCN(CCC(=O)c2ccc(Br)cc2)C1` (stereo not given), the IC50 is 1.16 µM.

For the molecule `O=[N+]([O-])c1c(Nc2ccccn2)cc(Cl)c2nonc12`, the IC50 is below 0.1 µM.

For the molecule `CCOc1cccc2cc(C(=O)NC(C)c3ccccc3)c(=N)oc12` (stereo not given), the IC50 is 32.9 µM (inactive).

Regarding `COc1cccc(C(=O)OCC(=O)Nc2nnc(-c3ccccc3)o2)c1`, the IC50 is 22.8 µM (inactive).

Turning to `CCOc1ccc(-c2nc3ccccc3c(=O)o2)cc1`, the IC50 is 6.27 µM.

As to `O=C(Nc1nc2ccccc2[nH]1)c1cccc([N+](=O)[O-])c1`, the IC50 was 33.2 µM (inactive).

For the molecule `CCCOc1ccc(C(=O)NNC(=S)NC(=O)c2ccco2)cc1`, the IC50 is 3.83 µM.

As to `CC(=O)N(Cc1ccc(F)cc1)C1=C(NCCc2ccccc2)C(=O)c2ccccc2C1=O`, the half-inhibitory concentration (IC50) is 4.4 µM.

For `O=c1c2cc(Br)ccc2nc(-c2cccc(C(F)(F)F)c2)n1O`, the concentration for half-maximal inhibition (IC50) was 0.43 µM.

As for `Cn1c(NC(=O)c2ccccc2)nc2ccccc21`, the IC50 is 2.7 µM.

Regarding `O=[N+]([O-])c1ccc(/C=N/NS(=O)(=O)c2ccc(Cl)cc2)o1`, the IC50 was 14.7 µM (inactive).

Regarding `COC(=O)c1cccc(COC(=O)c2cc3ccccc3oc2=O)c1`, the IC50 was 11.7 µM (inactive).

With `COc1ccc(CC(=O)OCC(=O)Nc2ccc(Br)cc2)cc1`, the IC50 was 14.6 µM (inactive).

Consider `COc1ccc(C(=O)COC(=O)c2ccc(Cl)nc2)c(OC)c1`, for which the IC50 was 10.7 µM (inactive).

Consider `c1ccc(C[C@H]2CNCCN2CCCCC2CCCCC2)cc1`, for which the IC50 was 17.7 µM (inactive).

On to `Brc1c(-c2ccc3c(c2)OCO3)nc2ncccn12`, for which the half-inhibitory concentration (IC50) was 1.1 µM.

Turning to `CCOc1ccc(OCC(=O)Nc2nccs2)cc1`, the IC50 was 7.75 µM.

In the case of `O=C(Nc1nccs1)c1ccccn1`, the IC50 is 14.5 µM (inactive).

`CCCCCOc1ccc(CSC2=NCCN2)cc1[N+](=O)[O-]`: the IC50 is 23.4 µM (inactive).

For the molecule `NC(=O)C1CCN(C2CC(=O)NC2=O)CC1` (stereo not given), the IC50 was 15.7 µM (inactive).

Turning to `Cc1ccc(C(=O)Oc2cccc(-n3cnnn3)c2)cc1`, the IC50 was 25.3 µM (inactive).

Consider `O=C(OCn1nnc2ccccc2c1=O)C1CCCCC1`, for which the IC50 was 22 µM (inactive).

For `O=C(CN1CCN(c2ccccc2)CC1)Nc1nnc(-c2ccccc2)s1`, the IC50 was 9.53 µM.
